Source: publication PMC6120666 (The EMBO Journal, 2018)

What was measured:
Assay in all cases: Drug affinity chromatography with c-ponatinib and LC-MS/MS (ponatinib interactome)
Format in all cases: binding
[1] = target: T1, proteins of U2OS cell lysate (Homo sapiens, UniProt P62906); conditions: RPL10A, 60S ribosomal protein L10a
T1 construct: Proteins enriched by c-ponatinib from U2OS cell lysate; endogenous in cells; host or cells: U2OS cell lysate
Outline: (§1)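 U2OS cell lysate in NP-40 lysis buffer (2 mg protein per pulldown) was incubated with amine-derivatized NHS beads for 2 h at 4 °C. Bound proteins were washed, eluted with 100 mM formic acid, reduced, alkylated and trypsin-digested, then identified by nano-UPLC–MS/MS on Orbitrap instruments with a 60 min gradient.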

[2] = target: T2, proteins of U2OS cell lysate (Homo sapiens, UniProt Q9Y512); conditions: SAMM50, Sorting and assembly machinery component 50 homolog
T2 construct: Proteins enriched by c-ponatinib from U2OS cell lysate; endogenous in cells; host or cells: U2OS cell lysate
Outline: as §1

[3] = target: T3, proteins of U2OS cell lysate (Homo sapiens, UniProt P20700); conditions: LMNB1, Lamin-B1
T3 construct: Proteins enriched by c-ponatinib from U2OS cell lysate; endogenous in cells; host or cells: U2OS cell lysate
T3 sequence (P20700 whole entry): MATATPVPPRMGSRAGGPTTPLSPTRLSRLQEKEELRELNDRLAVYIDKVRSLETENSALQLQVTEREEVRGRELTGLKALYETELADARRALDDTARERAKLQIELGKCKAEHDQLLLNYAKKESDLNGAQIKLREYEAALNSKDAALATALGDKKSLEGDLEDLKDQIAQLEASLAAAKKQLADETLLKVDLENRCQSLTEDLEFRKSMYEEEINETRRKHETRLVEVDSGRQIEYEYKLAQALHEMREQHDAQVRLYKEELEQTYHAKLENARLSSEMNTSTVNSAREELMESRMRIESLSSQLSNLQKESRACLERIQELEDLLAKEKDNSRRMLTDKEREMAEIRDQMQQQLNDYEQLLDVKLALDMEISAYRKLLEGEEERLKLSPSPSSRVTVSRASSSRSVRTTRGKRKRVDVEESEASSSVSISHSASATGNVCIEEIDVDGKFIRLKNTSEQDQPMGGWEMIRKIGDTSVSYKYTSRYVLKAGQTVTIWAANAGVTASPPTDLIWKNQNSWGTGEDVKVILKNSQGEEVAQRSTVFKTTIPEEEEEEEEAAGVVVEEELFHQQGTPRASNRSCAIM
Outline: as §1

[4] = target: T4, proteins of U2OS cell lysate (Homo sapiens, UniProt P34913); conditions: EPHX2, Bifunctional epoxide hydrolase 2
T4 construct: Proteins enriched by c-ponatinib from U2OS cell lysate; endogenous in cells; host or cells: U2OS cell lysate
T4 sequence (P34913 whole entry): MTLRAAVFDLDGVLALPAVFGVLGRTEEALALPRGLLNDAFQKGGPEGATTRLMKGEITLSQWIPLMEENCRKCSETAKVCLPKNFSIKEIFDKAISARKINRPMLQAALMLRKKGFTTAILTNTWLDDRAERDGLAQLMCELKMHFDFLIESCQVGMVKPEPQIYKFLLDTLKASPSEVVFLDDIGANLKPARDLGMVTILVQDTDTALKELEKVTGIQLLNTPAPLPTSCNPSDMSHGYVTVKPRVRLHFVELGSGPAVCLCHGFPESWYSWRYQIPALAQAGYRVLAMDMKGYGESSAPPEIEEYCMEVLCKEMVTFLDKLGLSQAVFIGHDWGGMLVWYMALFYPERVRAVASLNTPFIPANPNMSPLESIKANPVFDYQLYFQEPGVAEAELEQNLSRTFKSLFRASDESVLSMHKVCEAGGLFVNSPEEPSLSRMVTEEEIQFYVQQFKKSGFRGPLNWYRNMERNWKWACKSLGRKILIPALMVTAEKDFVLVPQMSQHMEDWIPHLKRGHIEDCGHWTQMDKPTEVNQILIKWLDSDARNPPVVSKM
Outline: as §1

[5] = target: T5, proteins of U2OS cell lysate (Homo sapiens, UniProt P46783); conditions: RPS10;RPS10P5, 40S ribosomal protein S10
T5 construct: Proteins enriched by c-ponatinib from U2OS cell lysate; endogenous in cells; host or cells: U2OS cell lysate
Outline: as §1

[6] = target: T6, proteins of U2OS cell lysate (Homo sapiens, UniProt Q9ULV4); conditions: CORO1C, Coronin-1C
T6 construct: Proteins enriched by c-ponatinib from U2OS cell lysate; endogenous in cells; host or cells: U2OS cell lysate
T6 sequence (Q9ULV4 whole entry): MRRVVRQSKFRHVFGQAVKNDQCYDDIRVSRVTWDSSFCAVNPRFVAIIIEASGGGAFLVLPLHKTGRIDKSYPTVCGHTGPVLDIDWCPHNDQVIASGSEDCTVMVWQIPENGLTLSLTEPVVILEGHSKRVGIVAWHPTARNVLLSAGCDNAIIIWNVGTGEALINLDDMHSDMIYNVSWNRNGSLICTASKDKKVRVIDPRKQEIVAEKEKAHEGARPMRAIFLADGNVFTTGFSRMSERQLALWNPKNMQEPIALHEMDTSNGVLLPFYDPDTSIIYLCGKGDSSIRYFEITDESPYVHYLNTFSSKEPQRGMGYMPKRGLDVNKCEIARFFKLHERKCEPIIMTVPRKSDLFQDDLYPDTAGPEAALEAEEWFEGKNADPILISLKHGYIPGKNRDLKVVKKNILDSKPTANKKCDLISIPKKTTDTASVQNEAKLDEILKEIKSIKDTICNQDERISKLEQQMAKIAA
Outline: as §1

[7] = target: T7, proteins of U2OS cell lysate (Homo sapiens, UniProt P08195); conditions: SLC3A2, 4F2 cell-surface antigen heavy chain
T7 construct: Proteins enriched by c-ponatinib from U2OS cell lysate; endogenous in cells; host or cells: U2OS cell lysate
T7 sequence (P08195 102-630): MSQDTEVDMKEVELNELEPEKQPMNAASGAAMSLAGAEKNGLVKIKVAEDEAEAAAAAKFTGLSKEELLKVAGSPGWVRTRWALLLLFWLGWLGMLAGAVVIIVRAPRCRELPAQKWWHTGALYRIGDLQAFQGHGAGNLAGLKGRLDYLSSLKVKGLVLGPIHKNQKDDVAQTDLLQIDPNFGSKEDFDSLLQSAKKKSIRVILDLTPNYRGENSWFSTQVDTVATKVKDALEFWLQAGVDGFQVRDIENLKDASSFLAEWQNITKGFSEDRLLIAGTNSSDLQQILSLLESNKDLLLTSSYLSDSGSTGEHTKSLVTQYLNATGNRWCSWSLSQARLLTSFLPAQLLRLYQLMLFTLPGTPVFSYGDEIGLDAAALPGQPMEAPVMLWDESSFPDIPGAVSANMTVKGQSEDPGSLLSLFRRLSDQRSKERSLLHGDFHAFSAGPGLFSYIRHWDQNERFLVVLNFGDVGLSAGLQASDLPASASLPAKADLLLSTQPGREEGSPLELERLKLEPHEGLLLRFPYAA
Outline: as §1

[8] = target: T8, proteins of U2OS cell lysate (Homo sapiens, UniProt P16083); conditions: NQO2, Ribosyldihydronicotinamide dehydrogenase [quinone]
T8 construct: Proteins enriched by c-ponatinib from U2OS cell lysate; endogenous in cells; host or cells: U2OS cell lysate
T8 sequence (P16083 whole entry): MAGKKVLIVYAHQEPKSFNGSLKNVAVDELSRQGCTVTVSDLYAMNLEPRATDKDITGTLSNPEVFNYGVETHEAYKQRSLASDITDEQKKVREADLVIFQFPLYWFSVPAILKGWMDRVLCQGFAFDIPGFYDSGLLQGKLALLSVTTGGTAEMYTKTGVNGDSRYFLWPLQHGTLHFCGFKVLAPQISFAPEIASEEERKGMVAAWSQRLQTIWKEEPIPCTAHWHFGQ
Outline: as §1

[9] = target: T9, proteins of U2OS cell lysate (Homo sapiens, UniProt P08559); conditions: PDHA1, Pyruvate dehydrogenase E1 component subunit alpha, somatic form, mitochondrial
T9 construct: Proteins enriched by c-ponatinib from U2OS cell lysate; endogenous in cells; host or cells: U2OS cell lysate
T9 sequence (P08559 30-390): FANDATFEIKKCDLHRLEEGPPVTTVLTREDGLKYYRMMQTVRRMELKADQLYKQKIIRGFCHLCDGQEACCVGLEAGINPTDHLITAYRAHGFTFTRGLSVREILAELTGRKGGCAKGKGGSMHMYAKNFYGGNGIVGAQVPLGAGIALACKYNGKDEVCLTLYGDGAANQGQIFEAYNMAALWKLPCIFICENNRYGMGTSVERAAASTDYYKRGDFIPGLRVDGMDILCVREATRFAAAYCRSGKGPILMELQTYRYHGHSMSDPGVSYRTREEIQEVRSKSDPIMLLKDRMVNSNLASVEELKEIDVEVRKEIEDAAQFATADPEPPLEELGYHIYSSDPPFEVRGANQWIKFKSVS
Outline: as §1

[10] = target: T10, proteins of U2OS cell lysate (Homo sapiens, UniProt Q13428); conditions: TCOF1, Treacle protein
T10 construct: Proteins enriched by c-ponatinib from U2OS cell lysate; endogenous in cells; host or cells: U2OS cell lysate
T10 sequence (Q13428 whole entry): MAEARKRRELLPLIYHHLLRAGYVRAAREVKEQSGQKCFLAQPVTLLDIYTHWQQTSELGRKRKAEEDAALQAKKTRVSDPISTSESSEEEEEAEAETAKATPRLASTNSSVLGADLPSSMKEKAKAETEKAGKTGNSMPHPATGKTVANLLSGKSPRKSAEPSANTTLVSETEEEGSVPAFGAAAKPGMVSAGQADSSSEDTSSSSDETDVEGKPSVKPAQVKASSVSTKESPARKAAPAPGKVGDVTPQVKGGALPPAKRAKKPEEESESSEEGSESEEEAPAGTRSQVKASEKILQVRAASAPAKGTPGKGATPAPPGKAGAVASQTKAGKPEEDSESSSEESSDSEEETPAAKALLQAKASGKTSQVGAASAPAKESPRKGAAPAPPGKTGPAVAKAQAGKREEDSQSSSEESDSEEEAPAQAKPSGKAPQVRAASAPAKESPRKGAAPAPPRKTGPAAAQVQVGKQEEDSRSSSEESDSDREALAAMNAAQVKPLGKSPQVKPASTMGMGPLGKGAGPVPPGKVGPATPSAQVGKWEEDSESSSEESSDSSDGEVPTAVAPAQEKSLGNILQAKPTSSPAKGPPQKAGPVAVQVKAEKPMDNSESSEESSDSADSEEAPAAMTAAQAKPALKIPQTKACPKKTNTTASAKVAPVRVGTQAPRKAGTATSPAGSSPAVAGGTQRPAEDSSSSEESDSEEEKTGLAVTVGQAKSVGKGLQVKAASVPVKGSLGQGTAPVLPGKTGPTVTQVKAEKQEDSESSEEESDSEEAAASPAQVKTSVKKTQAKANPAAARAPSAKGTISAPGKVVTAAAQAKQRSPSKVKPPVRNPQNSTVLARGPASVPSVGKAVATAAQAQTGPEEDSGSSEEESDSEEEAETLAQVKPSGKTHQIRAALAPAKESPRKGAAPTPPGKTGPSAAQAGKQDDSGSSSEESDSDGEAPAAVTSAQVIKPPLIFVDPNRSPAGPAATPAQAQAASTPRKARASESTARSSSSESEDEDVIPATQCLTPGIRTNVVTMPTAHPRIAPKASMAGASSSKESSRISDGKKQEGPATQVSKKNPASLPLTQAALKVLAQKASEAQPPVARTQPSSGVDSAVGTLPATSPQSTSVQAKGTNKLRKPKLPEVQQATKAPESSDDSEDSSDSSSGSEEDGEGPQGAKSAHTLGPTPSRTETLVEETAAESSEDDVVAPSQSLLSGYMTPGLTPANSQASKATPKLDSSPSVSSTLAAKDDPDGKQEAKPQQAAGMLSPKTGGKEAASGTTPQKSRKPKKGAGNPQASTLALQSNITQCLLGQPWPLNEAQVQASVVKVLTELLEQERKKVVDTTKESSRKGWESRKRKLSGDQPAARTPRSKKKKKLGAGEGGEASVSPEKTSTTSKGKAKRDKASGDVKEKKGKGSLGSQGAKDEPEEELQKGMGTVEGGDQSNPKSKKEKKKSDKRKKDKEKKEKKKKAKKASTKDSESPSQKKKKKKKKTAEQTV
Outline: as §1

[11] = target: T11, proteins of U2OS cell lysate (Homo sapiens, UniProt Q16181); conditions: SEPT7;DKFZp586I031, Septin-7
T11 construct: Proteins enriched by c-ponatinib from U2OS cell lysate; endogenous in cells; host or cells: U2OS cell lysate
Outline: as §1

[12] = target: T12, proteins of U2OS cell lysate (Homo sapiens, UniProt Q0ZGT2); conditions: NEXN, Nexilin
T12 construct: Proteins enriched by c-ponatinib from U2OS cell lysate; endogenous in cells; host or cells: U2OS cell lysate
Outline: as §1

[13] = target: T13, proteins of U2OS cell lysate (Homo sapiens, UniProt P51617); conditions: IRAK1, Interleukin-1 receptor-associated kinase 1
T13 construct: Proteins enriched by c-ponatinib from U2OS cell lysate; endogenous in cells; host or cells: U2OS cell lysate
T13 sequence (P51617 whole entry): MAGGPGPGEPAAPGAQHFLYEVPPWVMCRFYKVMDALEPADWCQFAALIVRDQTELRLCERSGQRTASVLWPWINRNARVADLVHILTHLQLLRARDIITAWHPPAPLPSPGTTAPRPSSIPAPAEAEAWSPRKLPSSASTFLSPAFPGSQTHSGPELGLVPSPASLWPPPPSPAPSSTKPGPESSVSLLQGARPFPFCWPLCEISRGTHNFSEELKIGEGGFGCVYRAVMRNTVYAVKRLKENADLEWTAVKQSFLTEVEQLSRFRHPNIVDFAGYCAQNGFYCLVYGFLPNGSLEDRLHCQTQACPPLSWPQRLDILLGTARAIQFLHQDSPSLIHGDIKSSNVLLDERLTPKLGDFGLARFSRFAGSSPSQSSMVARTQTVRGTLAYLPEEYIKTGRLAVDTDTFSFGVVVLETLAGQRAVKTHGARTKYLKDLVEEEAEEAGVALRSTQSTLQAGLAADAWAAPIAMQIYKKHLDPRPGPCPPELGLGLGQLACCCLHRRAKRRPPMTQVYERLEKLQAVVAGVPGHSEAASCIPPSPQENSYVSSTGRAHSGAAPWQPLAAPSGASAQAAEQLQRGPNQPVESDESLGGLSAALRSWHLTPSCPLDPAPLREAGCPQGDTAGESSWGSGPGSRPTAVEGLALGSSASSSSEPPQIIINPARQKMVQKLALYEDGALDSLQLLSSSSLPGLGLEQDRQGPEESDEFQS
Outline: as §1

[14] = target: T14, proteins of U2OS cell lysate (Homo sapiens, UniProt P62333); conditions: PSMC6, 26S protease regulatory subunit 10B
T14 construct: Proteins enriched by c-ponatinib from U2OS cell lysate; endogenous in cells; host or cells: U2OS cell lysate
Outline: as §1

[15] = target: T15, proteins of U2OS cell lysate (Homo sapiens, UniProt Q9NTJ3); conditions: SMC4, Structural maintenance of chromosomes protein 4
T15 construct: Proteins enriched by c-ponatinib from U2OS cell lysate; endogenous in cells; host or cells: U2OS cell lysate
Outline: as §1

[16] = target: T16, proteins of U2OS cell lysate (Homo sapiens, UniProt P26368); conditions: U2AF2, Splicing factor U2AF 65 kDa subunit
T16 construct: Proteins enriched by c-ponatinib from U2OS cell lysate; endogenous in cells; host or cells: U2OS cell lysate
Outline: as §1

[17] = target: T17, proteins of U2OS cell lysate (Homo sapiens, UniProt O95347); conditions: SMC2, Structural maintenance of chromosomes protein 2
T17 construct: Proteins enriched by c-ponatinib from U2OS cell lysate; endogenous in cells; host or cells: U2OS cell lysate
Outline: as §1

[18] = target: T18, proteins of U2OS cell lysate (Homo sapiens, UniProt P55884); conditions: captured protein EIF3B, Rank 123
T18 construct: Proteins enriched by c-ponatinib from U2OS cell lysate; endogenous in cells; host or cells: U2OS cell lysate
Outline: as §1

[19] = target: T19, proteins of U2OS cell lysate (Homo sapiens, UniProt Q9HAV4); conditions: captured protein XPO5, Rank 207
T19 construct: Proteins enriched by c-ponatinib from U2OS cell lysate; endogenous in cells; host or cells: U2OS cell lysate
Outline: as §1

Cc1ccc(C(=O)Nc2ccc(CN3CCN(C)CC3)c(C(F)(F)F)c2)cc1C#Cc1cnc2cccnn12 [PON]
Average LFQ PON_WT [1]: 19.7018 | Average LFQ PON_WT [2]: 20.9007 | Average LFQ PON_WT [3]: 25.3205 | Average LFQ PON_WT [4]: 24.5257 | Average LFQ PON_WT [5]: 21.6692 | Average LFQ PON_WT [6]: 24.6024 | Average LFQ PON_WT [7]: 18.7801 | Average LFQ PON_WT [8]: 24.6177 | Average LFQ PON_WT [9]: 21.0192 | Average LFQ PON_WT [10]: 20.5654 | Average LFQ PON_WT [11]: 23.204 | Average LFQ PON_WT [12]: 20.2843 | Average LFQ PON_WT [13]: 23.3938 | Average LFQ PON_WT [14]: 21.4756 | Average LFQ PON_WT [15]: 21.2975 | Average LFQ PON_WT [16]: 21.5048 | Average LFQ PON_WT [17]: 20.8973

Cc1ccc(C(=O)Nc2ccc(CN3CCN(CCCN)CC3)c(C(F)(F)F)c2)cc1C#Cc1cnc2cccnn12 [c-ponatinib, reference compound]
Average LFQ intensity [18]: 23.0265 | Average LFQ intensity [19]: 21.7615
